From PubChem BioAssay AID248 (DTP/NCI, 2004)
Values joined by “and” are separate entries in the source; they are usually repeats but may differ in a detail not shown here. Identical values can stand only once. Inconclusive results and toxic doses are left out.

Tested on: L1210 leukemia ip in BDF1 mice, survival T/C
Experiment: NCI In Vivo Anticancer Drug Screen. Data for tumor model L1210 Leukemia (intraperitoneal) in B6D2F1 (BDF1) mice
Details: higher = longer survival
Method in brief: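 Ratio derived from survival: compound-dosed mice over vehicle-dosed mice, all bearing a transplantable tumor.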

## O=C1c2ccccc2C(=O)c2c(NCCNCCO)ccc(NCCNCCO)c21
endpoint: mean survival time, dose: 2.0 mg/kg/injection, schedule: Q01DX009 (ip), vehicle: Klucel (hydroxypropylcellulose) (HPC)
  T/C: 204 % of control
endpoint: mean survival time, dose: 2.0 mg/kg/injection, schedule: Q01DX009 (ip), vehicle: saline with Tween-80
  T/C: 162 % of control
endpoint: mean survival time, dose: 2.0 mg/kg/injection, schedule: Q01DX009 (ip), vehicle: water
  T/C: 196 % of control
endpoint: mean survival time, dose: 4.0 mg/kg/injection, schedule: Q01DX009 (ip), vehicle: Klucel (hydroxypropylcellulose) (HPC)
  T/C: 306 % of control
endpoint: mean survival time, dose: 4.0 mg/kg/injection, schedule: Q01DX009 (ip), vehicle: saline with Tween-80
  T/C: 153 % of control
endpoint: mean survival time, dose: 4.0 mg/kg/injection, schedule: Q01DX009 (ip), vehicle: water
  T/C: 159 % of control
endpoint: mean survival time, dose: 8.0 mg/kg/injection, schedule: Q01DX009 (ip), vehicle: Klucel (hydroxypropylcellulose) (HPC)
  T/C: 491 % of control
endpoint: mean survival time, dose: 8.0 mg/kg/injection, schedule: Q01DX009 (ip), vehicle: saline with Tween-80
  T/C: 220 % of control
endpoint: mean survival time, dose: 8.0 mg/kg/injection, schedule: Q01DX009 (ip), vehicle: water
  T/C: 498 % of control
endpoint: mean survival time, dose: 16.0 mg/kg/injection, schedule: Q01DX009 (ip), vehicle: Klucel (hydroxypropylcellulose) (HPC)
  T/C: 347 % of control
endpoint: mean survival time, dose: 16.0 mg/kg/injection, schedule: Q01DX009 (ip), vehicle: saline with Tween-80
  T/C: 253 % of control
endpoint: mean survival time, dose: 16.0 mg/kg/injection, schedule: Q01DX009 (ip), vehicle: water
  T/C: 396 % of control
endpoint: mean survival time, dose: 32.0 mg/kg/injection, schedule: Q01DX009 (ip), vehicle: Klucel (hydroxypropylcellulose) (HPC)
  T/C: 118 % of control
endpoint: mean survival time, dose: 32.0 mg/kg/injection, schedule: Q01DX009 (ip), vehicle: saline with Tween-80
  T/C: 89 % of control
endpoint: mean survival time, dose: 32.0 mg/kg/injection, schedule: Q01DX009 (ip), vehicle: water
  T/C: 93 % of control
endpoint: median survival time, dose: 8.0 mg/kg/injection, schedule: Q01DX005 (oral), vehicle: Klucel (hydroxypropylcellulose) (HPC)
  T/C: 90 % of control
endpoint: median survival time, dose: 8.0 mg/kg/injection, schedule: Q01DX005 (oral), vehicle: water
  T/C: 101 % of control
endpoint: median survival time, dose: 16.0 mg/kg/injection, schedule: Q01DX005 (oral), vehicle: Klucel (hydroxypropylcellulose) (HPC)
  T/C: 98 % of control
endpoint: median survival time, dose: 16.0 mg/kg/injection, schedule: Q01DX005 (oral), vehicle: water
  T/C: 101 % of control
endpoint: median survival time, dose: 32.0 mg/kg/injection, schedule: Q01DX005 (oral), vehicle: Klucel (hydroxypropylcellulose) (HPC)
  T/C: 94 % of control
endpoint: median survival time, dose: 32.0 mg/kg/injection, schedule: Q01DX005 (oral), vehicle: water
  T/C: 101 % of control
endpoint: median survival time, dose: 64.0 mg/kg/injection, schedule: Q01DX005 (oral), vehicle: Klucel (hydroxypropylcellulose) (HPC)
  T/C: 100 % of control
endpoint: median survival time, dose: 64.0 mg/kg/injection, schedule: Q01DX005 (oral), vehicle: water
  T/C: 97 % of control
endpoint: median survival time, dose: 128.0 mg/kg/injection, schedule: Q01DX005 (oral), vehicle: Klucel (hydroxypropylcellulose) (HPC)
  T/C: 94 % of control
endpoint: median survival time, dose: 128.0 mg/kg/injection, schedule: Q01DX005 (oral), vehicle: water
  T/C: 100 % of control
endpoint: median survival time, dose: 256.0 mg/kg/injection, schedule: Q01DX005 (oral), vehicle: Klucel (hydroxypropylcellulose) (HPC)
  T/C: 98 % of control
endpoint: median survival time, dose: 256.0 mg/kg/injection, schedule: Q01DX005 (oral), vehicle: water
  T/C: 102 % of control
endpoint: median survival time, dose: 512.0 mg/kg/injection, schedule: Q01DX005 (oral), vehicle: Klucel (hydroxypropylcellulose) (HPC)
  T/C: 103 % of control
endpoint: median survival time, dose: 512.0 mg/kg/injection, schedule: Q01DX005 (oral), vehicle: water
  T/C: 106 % of control

## O=S(=O)(F)c1ccc(CBr)cc1
endpoint: mean survival time, dose: 25.0 mg/kg/injection, schedule: Q01DX001 (ip), vehicle: saline
  T/C: 113 % of control
endpoint: mean survival time, dose: 50.0 mg/kg/injection, schedule: Q01DX001 (ip), vehicle: saline
  T/C: 123 % of control
endpoint: mean survival time, dose: 100.0 mg/kg/injection, schedule: Q01DX001 (ip), vehicle: saline
  T/C: 95 % of control and 98 % of control

## CC(C)C(NC(=O)C1CSC(C)(C)N1C=O)C(N)=O (configuration not stated)
endpoint: mean survival time, dose: 100.0 mg/kg/injection, schedule: Q04DX003 (ip), vehicle: saline with Tween-80
  T/C: 101 % of control
endpoint: mean survival time, dose: 200.0 mg/kg/injection, schedule: Q04DX003 (ip), vehicle: saline with Tween-80
  T/C: 98 % of control
endpoint: mean survival time, dose: 400.0 mg/kg/injection, schedule: Q04DX003 (ip), vehicle: saline with Tween-80
  T/C: 101 % of control

## C=C1C(=O)OCC2(C)CCCCC12 (configuration not stated)
endpoint: mean survival time, dose: 10.0 mg/kg/injection, schedule: Q04DX003 (ip), vehicle: saline
  T/C: 101 % of control
endpoint: mean survival time, dose: 20.0 mg/kg/injection, schedule: Q04DX003 (ip), vehicle: saline
  T/C: 116 % of control

## CCOc1c(/C=N/NC(=O)c2ccccc2OC)cccc1OC
endpoint: mean survival time, dose: 100.0 mg/kg/injection, schedule: Q01DX009 (ip), vehicle: Klucel (hydroxypropylcellulose) (HPC)
  T/C: 116 % of control
endpoint: mean survival time, dose: 100.0 mg/kg/injection, schedule: Q04DX003 (ip), vehicle: Klucel (hydroxypropylcellulose) (HPC)
  T/C: 102 % of control
endpoint: mean survival time, dose: 200.0 mg/kg/injection, schedule: Q01DX009 (ip), vehicle: Klucel (hydroxypropylcellulose) (HPC)
  T/C: 95 % of control
endpoint: mean survival time, dose: 200.0 mg/kg/injection, schedule: Q04DX003 (ip), vehicle: Klucel (hydroxypropylcellulose) (HPC)
  T/C: 105 % of control
endpoint: mean survival time, dose: 400.0 mg/kg/injection, schedule: Q04DX003 (ip), vehicle: Klucel (hydroxypropylcellulose) (HPC)
  T/C: 107 % of control
